Measurements reported in patent US9670162B2, “Mitochondrial aldehyde dehyrogenase-2 modulators and methods of use thereof” (The Board of Trustees of the Leland Stanford Junior …, priority 2013, dated 2017).

Assays:
[1] = target: T1, human ALDH2*2 recombinant mutant enzyme (E487K) (Homo sapiens, UniProt P05091, E504K); experiment: ALDH2 enzymatic assay (NADH at 340 nm), recombinant mutant enzyme; assay type: biochemical; parameters: key: −: no activation or inhibition; +: activation less than control 1; ++: activation similar to control 1, within 10%; +++: activation more than control 1 and less than control (compound 161); ++++: activation similar to compound 161, within 10%; conditions: activation relative to benchmarks control 1 and compound 161
T1 construct: His-tag (pTrcHis vector) (N); made in house; host or cells: E. coli BL21
T1 sequence (P05091 18-517 E504K): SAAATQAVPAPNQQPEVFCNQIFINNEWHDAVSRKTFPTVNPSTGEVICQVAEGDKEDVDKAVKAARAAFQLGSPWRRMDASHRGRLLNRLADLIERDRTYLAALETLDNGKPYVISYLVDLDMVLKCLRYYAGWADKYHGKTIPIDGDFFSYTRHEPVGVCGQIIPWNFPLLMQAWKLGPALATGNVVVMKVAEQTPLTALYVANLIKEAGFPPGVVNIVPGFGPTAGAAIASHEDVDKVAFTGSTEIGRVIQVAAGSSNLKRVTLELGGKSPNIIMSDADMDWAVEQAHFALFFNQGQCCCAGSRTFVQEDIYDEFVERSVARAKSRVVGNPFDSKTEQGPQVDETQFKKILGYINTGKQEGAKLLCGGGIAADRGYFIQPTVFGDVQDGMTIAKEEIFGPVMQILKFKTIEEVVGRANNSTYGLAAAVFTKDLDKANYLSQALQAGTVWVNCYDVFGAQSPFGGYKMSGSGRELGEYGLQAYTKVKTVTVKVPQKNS

Plasma stability, rat = assay type: in vitro ADME
Protocol: (§1) In vitro ADMET of compounds of the present disclosure was carried out according to known methods in the art. Below are data for certain compounds of the present disclosure.

Caco-2 permeability = assay type: in vitro ADME; conditions: human
Protocol: as §1

For `COc1ccc(CNC(=O)c2c(Cl)ccnc2OCC2CC2)cc1F` [Compound 161], the “ALDH2 (mutant)” value [1] was “++++”, the Plasma stability Rat (Plasma stability, rat) was 100% and the Papp A→B (Caco-2 permeability; A-B, read-out: absorption (Caco-2, Papp, A-B)) was 15.7 ×10⁻⁶ cm/s. The Papp B→A (Caco-2 permeability; B-A) was 10.7 ×10⁻⁶ cm/s and the efflux ratio (Caco-2 permeability; ratio, read-out: Caco-2 Papp B-A/A-B) was 0.68.
